Source: ChEMBL document CHEMBL1201862, “PubChem BioAssay data set” (2004)
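96-well plates; 48 h exposure; 5 concentrations. Endpoints by linear interpolation between flanking doses. Not reached: highest tested concentration assigned. At the GI50, growth is halved.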 The source made the active and inactive calls. No stated cut-off is given here; in the data, active = GI50 up to about 1.1 µM and inactive = higher.

What was measured:
Test in all cases: NCI anticancer screen, dose series, 48 h
A498 = system: A498
UACC-62 = system: UACC-62
NCI/ADR-RES = system: NCI/ADR-RES
K562 = system: K562
U-251 = system: U-251
KM12 = system: KM12
HOP-92 = system: HOP-92
UACC-257 = system: UACC-257
MOLT-4 = system: MOLT-4
SK-MEL-2 = system: SK-MEL-2
MCF7 = system: MCF7
PC-3 = system: PC-3
SNB-75 = system: SNB-75
NCI-H226 = system: NCI-H226
M14 = system: M14
SF-268 = system: SF-268
MDA-N = system: MDA-N
HCC 2998 = system: HCC 2998
SN12C = system: SN12C

Structure (SMILES) | GI50 (A498) | GI50 (UACC-62) | GI50 (NCI/ADR-RES) | GI50 (K562) | GI50 (U-251) | GI50 (KM12) | GI50 (HOP-92) | GI50 (UACC-257) | GI50 (MOLT-4) | GI50 (SK-MEL-2) | GI50 (MCF7) | GI50 (PC-3) | GI50 (SNB-75) | GI50 (NCI-H226) | GI50 (M14) | GI50 (SF-268) | GI50 (MDA-N) | GI50 (HCC 2998) | GI50 (SN12C)
CN(C)CCCNc1c2c(nc3ccc(Cl)cc13)CCCC2 | 18 µM (inactive) | 16.9 µM (inactive) | 18.1 µM (inactive) | 0.492 µM (active) | 14.9 µM (inactive) | 13.6 µM (inactive) | 10.3 µM (inactive) | 16.3 µM (inactive) | 4.12 µM (inactive) | 19.3 µM (inactive) | 12.1 µM (inactive) | 13.7 µM (inactive) | 15.7 µM (inactive) | 22.3 µM (inactive) | 13.8 µM (inactive) | 13.2 µM (inactive) | 13.5 µM (inactive) | 5.27 µM (inactive) | 11.8 µM (inactive)
COc1ccc2c(c1)CCc1c-2n(CCN2CCCCC2)c2ccc(OC)cc12 | > 100 µM (inactive) | > 100 µM (inactive) | 28.2 µM (inactive) | 78.7 µM (inactive) | > 100 µM (inactive) | – | > 10 µM (inactive) | > 100 µM (inactive) | > 10 µM (inactive) | > 100 µM (inactive) | > 100 µM (inactive) | > 100 µM (inactive) | > 100 µM (inactive) | 10.4 µM (inactive) | > 100 µM (inactive) | > 100 µM (inactive) | > 100 µM (inactive) | > 100 µM (inactive) | > 100 µM (inactive)
NC1=CN(Cc2ccccc2)C2=N/C(=C\c3ccco3)C(=O)N12 | > 100 µM (inactive) | > 100 µM (inactive) | > 100 µM (inactive) | > 100 µM (inactive) | > 100 µM (inactive) | > 100 µM (inactive) | > 100 µM (inactive) | > 100 µM (inactive) | > 100 µM (inactive) | > 100 µM (inactive) | > 100 µM (inactive) | > 100 µM (inactive) | > 100 µM (inactive) | > 100 µM (inactive) | > 100 µM (inactive) | > 100 µM (inactive) | > 100 µM (inactive) | > 100 µM (inactive) | > 100 µM (inactive)
Cc1c2c(c(C)c3c[n+](C)ccc13)Oc1ccccc1O2 | 28.6 µM (inactive) | 12.7 µM (inactive) | > 100 µM (inactive) | 3.59 µM (inactive) | 1.21 µM (inactive) | 0.82 µM (active) | 34.8 µM (inactive) | 6.87 µM (inactive) | 3.02 µM (inactive) | 12.2 µM (inactive) | 9.12 µM (inactive) | 16.3 µM (inactive) | 5.28 µM (inactive) | 5.66 µM (inactive) | 18.2 µM (inactive) | 1.64 µM (inactive) | 18.6 µM (inactive) | 6.56 µM (inactive) | 1.77 µM (inactive)
COC(=O)C(Cc1ccccc1)NC(=O)c1ccc(CNC(=S)NCc2cccc(CNC(=S)NCc3ccccc3)c2)cc1 (centres undefined) | > 62.5 µM (inactive) | > 34.6 µM (inactive) | > 32.7 µM (inactive) | > 32.8 µM (inactive) | > 33.5 µM (inactive) | > 29 µM (inactive) | > 32 µM (inactive) | > 35.8 µM (inactive) | > 34 µM (inactive) | > 33.3 µM (inactive) | > 32.8 µM (inactive) | > 32 µM (inactive) | 13.4 µM (inactive) | > 34.1 µM (inactive) | > 36 µM (inactive) | 18.3 µM (inactive) | > 32.5 µM (inactive) | > 35 µM (inactive) | > 31.8 µM (inactive)
COC(=O)C1(Cc2ccccc2C)Cc2ccc(C)cc2C1=O (centres undefined) | 31.3 µM (inactive) | 40.6 µM (inactive) | 16.7 µM (inactive) | 42.2 µM (inactive) | 39 µM (inactive) | 31.2 µM (inactive) | 21.6 µM (inactive) | 29.4 µM (inactive) | 23.6 µM (inactive) | 21.2 µM (inactive) | 20 µM (inactive) | 25.7 µM (inactive) | 58.3 µM (inactive) | 34.2 µM (inactive) | 37.2 µM (inactive) | 69.7 µM (inactive) | 29.9 µM (inactive) | 48 µM (inactive) | 21.6 µM (inactive)
C=C1CC(COc2ccc3c(C)cc(=O)oc3c2)(c2ccccc2)OC1=O (centres undefined) | 2.64 µM (inactive) | 1.61 µM (inactive) | 2.28 µM (inactive) | 0.356 µM (active) | 10.4 µM (inactive) | 5.47 µM (inactive) | 0.394 µM (active) | 1.83 µM (inactive) | 1.68 µM (inactive) | 1.4 µM (inactive) | 1.13 µM (inactive) | 2.2 µM (inactive) | 6.95 µM (inactive) | 6.11 µM (inactive) | 1.33 µM (inactive) | 5.33 µM (inactive) | 1.95 µM (inactive) | 5.18 µM (inactive) | 5.27 µM (inactive)
[N-]=[N+]=NC1C(O)C(CO)OC1n1ccc(N)nc1=O (centres undefined) | 91.8 µM (inactive) | 147 µM (inactive) | 200 µM (inactive) | 294 µM (inactive) | 195 µM (inactive) | 187 µM (inactive) | 403 µM (inactive) | 369 µM (inactive) | 2.3 µM (inactive) | 76.7 µM (inactive) | 24 µM (inactive) | 182 µM (inactive) | 430 µM (inactive) | > 625 µM (inactive) | 26.1 µM (inactive) | 191 µM (inactive) | 93.1 µM (inactive) | 46.7 µM (inactive) | 227 µM (inactive)
C=CCN1C(=O)/C(=C/c2cccs2)N=C1SC/C=C/C | 27 µM (inactive) | 32.4 µM (inactive) | 39.1 µM (inactive) | 32.5 µM (inactive) | 37.7 µM (inactive) | 31.3 µM (inactive) | 24.6 µM (inactive) | 40.3 µM (inactive) | 14.7 µM (inactive) | 27.2 µM (inactive) | 26.4 µM (inactive) | 35.6 µM (inactive) | 17.3 µM (inactive) | > 100 µM (inactive) | 69.5 µM (inactive) | 46.5 µM (inactive) | 24.7 µM (inactive) | 48.3 µM (inactive) | 26.3 µM (inactive)
C=CCc1cccc2cc(C(=O)Nc3ccccc3)c(=N)oc12 | 23.2 µM (inactive) | 41.1 µM (inactive) | > 100 µM (inactive) | 64 µM (inactive) | > 100 µM (inactive) | 38.9 µM (inactive) | > 100 µM (inactive) | > 100 µM (inactive) | > 100 µM (inactive) | 8.47 µM (inactive) | 7.11 µM (inactive) | 39.2 µM (inactive) | 52.4 µM (inactive) | 36.6 µM (inactive) | 60.7 µM (inactive) | > 100 µM (inactive) | 70.6 µM (inactive) | 4.8 µM (inactive) | 55.8 µM (inactive)
C[C@]12CCC(=O)C=C1CC[C@@H]1[C@@H]2CC[C@]2(C)C(=O)/C(=C/c3ccc([N+](=O)[O-])cc3)C[C@@H]12 | 2.3 µM (inactive) | 3.36 µM (inactive) | 5.85 µM (inactive) | 3.35 µM (inactive) | – | 6.93 µM (inactive) | > 100 µM (inactive) | 6.59 µM (inactive) | 2.77 µM (inactive) | 62.5 µM (inactive) | 0.621 µM (active) | 7.87 µM (inactive) | 42 µM (inactive) | > 100 µM (inactive) | 29.4 µM (inactive) | 83.6 µM (inactive) | 6.31 µM (inactive) | 63.2 µM (inactive) | 46.3 µM (inactive)
C[C@H]1[C@H]2[C@H](C[C@@]3(C)C4=CC[C@H]5C(C)(C)[C@@H](OC6OCC(O)C(O)C6O)CC[C@@]56C[C@@]46CC[C@]23C)O[C@@]2(O)[C@@H]1OC(C)(C)[C@H]2O (some centres undefined) | 1.89 µM (inactive) | 1.61 µM (inactive) | 2.67 µM (inactive) | 2.39 µM (inactive) | 1.69 µM (inactive) | 1.48 µM (inactive) | 1.09 µM (active) | 1.6 µM (inactive) | 3.96 µM (inactive) | 5.53 µM (inactive) | 0.867 µM (active) | 1.07 µM (active) | 1.62 µM (inactive) | 2.44 µM (inactive) | 3.83 µM (inactive) | 0.914 µM (active) | 2.28 µM (inactive) | 0.681 µM (active) | 1.06 µM (active)
Oc1cc(-c2cccc(OCc3ccccc3)c2)nc2cc3c(cc12)OCO3 | 0.256 µM (active) | 0.37 µM (active) | 0.226 µM (active) | 0.235 µM (active) | 0.245 µM (active) | 0.491 µM (active) | 0.578 µM (active) | 14.7 µM (inactive) | 0.334 µM (active) | 0.301 µM (active) | 1.91 µM (inactive) | 0.327 µM (active) | 1.05 µM (active) | 0.455 µM (active) | 0.311 µM (active) | 8.34 µM (inactive) | 0.106 µM (active) | 0.298 µM (active) | 0.378 µM (active)
CC(OP(=O)(O)O)C(N)C(=O)O (centres undefined) | > 100 µM (inactive) | > 100 µM (inactive) | > 100 µM (inactive) | > 100 µM (inactive) | > 100 µM (inactive) | > 100 µM (inactive) | > 100 µM (inactive) | > 100 µM (inactive) | > 100 µM (inactive) | > 100 µM (inactive) | > 100 µM (inactive) | > 100 µM (inactive) | > 100 µM (inactive) | > 100 µM (inactive) | > 100 µM (inactive) | > 100 µM (inactive) | > 100 µM (inactive) | > 100 µM (inactive) | > 100 µM (inactive)
